Source: publication PMC4635063 (Cephalalgia : an international journal of headache, 2015)

How the values were obtained:
[1] = molecular target: T1, TRPM8 (transient receptor potential channel M8) (Rattus norvegicus, UniProt Q8R455); assay: aequorin luminescence calcium assay in CHO cells, inhibition of icilin; format: cell-based
[2] = molecular target: T1, TRPM8 (transient receptor potential channel M8); assay: agonist; format: cell-based

T1 sequence (Q8R455 whole entry): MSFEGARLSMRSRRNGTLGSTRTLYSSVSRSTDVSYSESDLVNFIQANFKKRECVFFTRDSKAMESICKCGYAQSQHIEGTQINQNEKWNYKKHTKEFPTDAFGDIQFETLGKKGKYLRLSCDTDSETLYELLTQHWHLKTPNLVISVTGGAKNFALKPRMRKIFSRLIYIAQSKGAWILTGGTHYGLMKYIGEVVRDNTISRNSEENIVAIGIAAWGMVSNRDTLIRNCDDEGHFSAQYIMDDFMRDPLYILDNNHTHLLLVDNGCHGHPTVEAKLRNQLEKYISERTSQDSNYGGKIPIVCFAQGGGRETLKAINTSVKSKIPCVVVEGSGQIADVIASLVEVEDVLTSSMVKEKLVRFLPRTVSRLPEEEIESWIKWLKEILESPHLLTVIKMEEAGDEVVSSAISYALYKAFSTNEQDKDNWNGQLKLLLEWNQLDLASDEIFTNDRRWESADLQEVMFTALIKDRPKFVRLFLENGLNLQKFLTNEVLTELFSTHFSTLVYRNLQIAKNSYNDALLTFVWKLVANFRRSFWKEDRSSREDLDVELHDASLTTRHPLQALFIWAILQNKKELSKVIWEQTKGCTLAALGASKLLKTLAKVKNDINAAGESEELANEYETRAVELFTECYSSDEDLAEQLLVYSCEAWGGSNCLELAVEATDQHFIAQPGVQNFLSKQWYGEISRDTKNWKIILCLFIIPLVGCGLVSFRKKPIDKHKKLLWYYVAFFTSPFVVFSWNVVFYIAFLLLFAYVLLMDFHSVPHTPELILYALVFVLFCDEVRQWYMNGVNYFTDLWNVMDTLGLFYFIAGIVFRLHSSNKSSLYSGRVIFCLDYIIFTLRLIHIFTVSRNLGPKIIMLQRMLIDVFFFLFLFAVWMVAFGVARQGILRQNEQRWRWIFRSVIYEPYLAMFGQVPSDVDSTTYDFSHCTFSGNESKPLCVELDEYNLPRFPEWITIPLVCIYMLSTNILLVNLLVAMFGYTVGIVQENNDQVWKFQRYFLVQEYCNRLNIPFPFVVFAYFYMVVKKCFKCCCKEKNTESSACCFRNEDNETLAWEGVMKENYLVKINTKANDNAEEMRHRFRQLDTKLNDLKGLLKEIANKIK

Row | IC50 [1] [µM] | Compound | agonist (1 uM) in aequorin luminescence calcium assay in CHO cells [2]
1 | 0.023 ± 0.0009 | AMG1161 | –
2 | – | O=C1NC(c2cccc([N+](=O)[O-])c2)=CCN1c1ccccc1O [icilin] | inhibition of TRPM8 activation by icilin and cold in cultured CHO cells stably transfected with rat TRPM8 channel
